Results taken from PubChem BioAssay (NCI).
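Each compound was tested at five concentrations against cells in 96-well plates for 48 hours. At the TGI there is no net growth.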

Tests used:
Experiment in all cases: NCI tumour cell line growth inhibition, 48 h
[1] = tested on: 786-0 renal
[2] = tested on: A549 NSCLC
[3] = tested on: ACHN renal
[4] = tested on: BT-549 breast
[5] = tested on: CCRF-CEM leukemia
[6] = tested on: COLO 205 colon
[7] = tested on: DU-145 prostate
[8] = tested on: EKVX NSCLC
[9] = tested on: HCT-116 colon
[10] = tested on: HCT-15 colon
[11] = tested on: HL-60(TB) leukemia
[12] = tested on: HOP-62 NSCLC
[13] = tested on: HOP-92 NSCLC
[14] = tested on: HT29 colon
[15] = tested on: K-562 leukemia
[16] = tested on: KM12 colon
[17] = tested on: M14 melanoma
[18] = tested on: MALME-3M melanoma
[19] = tested on: MCF7 breast
[20] = tested on: MDA-MB-435
[21] = tested on: MDA-N
[22] = tested on: NCI-H226 lung
[23] = tested on: NCI-H23 lung
[24] = tested on: NCI-H460 lung
[25] = tested on: NCI/ADR-RES ovarian
[26] = tested on: OVCAR-3 ovarian
[27] = tested on: OVCAR-5 ovarian
[28] = tested on: OVCAR-8 ovarian
[29] = tested on: PC-3 prostate
[30] = tested on: RPMI-8226 leukemia
[31] = tested on: RXF 393 renal
[32] = tested on: SF-268 CNS
[33] = tested on: SF-295 CNS
[34] = tested on: SF-539 CNS
[35] = tested on: SK-MEL-28 melanoma
[36] = tested on: SN12C renal
[37] = tested on: SNB-19 CNS
[38] = tested on: SR leukemia
[39] = tested on: SW-620 colon
[40] = tested on: T-47D breast
[41] = tested on: TK-10 renal
[42] = tested on: U251 CNS
[43] = tested on: UACC-257 melanoma
[44] = tested on: UO-31 renal
[45] = tested on: CAKI-1 renal
[46] = tested on: HCC-2998 colon
[47] = tested on: HS 578T breast
[48] = tested on: IGROV1 ovarian
[49] = tested on: MDA-MB-231 breast
[50] = tested on: MOLT-4 leukemia
[51] = tested on: NCI-H522 lung
[52] = tested on: OVCAR-4 ovarian
[53] = tested on: SK-MEL-5 melanoma
[54] = tested on: SK-OV-3 ovarian
[55] = tested on: SNB-75 CNS
[56] = tested on: UACC-62 melanoma

## Cc1ccc(S(=NS(=O)(=O)c2ccc(C)cc2)c2ccc(C)cc2)cc1
[1]
  TGI: > 100 µM
[2]
  TGI: > 100 µM
[3]
  TGI: > 100 µM
[4]
  TGI: > 100 µM
[5]
  TGI: > 100 µM
[6]
  TGI: > 100 µM
[7]
  TGI: > 100 µM
[8]
  TGI: > 100 µM
[9]
  TGI: > 100 µM
[10]
  TGI: > 100 µM
[11]
  TGI: > 100 µM
[12]
  TGI: > 100 µM
[13]
  TGI: > 100 µM
[14]
  TGI: > 100 µM
[15]
  TGI: > 100 µM
[16]
  TGI: > 100 µM
[17]
  TGI: > 100 µM
[18]
  TGI: > 100 µM
[19]
  TGI: > 100 µM
[20]
  TGI: > 100 µM
[21]
  TGI: > 100 µM
[22]
  TGI: > 100 µM
[23]
  TGI: > 100 µM
[24]
  TGI: > 100 µM
[25]
  TGI: > 100 µM
[26]
  TGI: > 100 µM
[27]
  TGI: > 100 µM
[28]
  TGI: > 100 µM
[29]
  TGI: > 100 µM
[30]
  TGI: > 100 µM
[31]
  TGI: > 100 µM
[32]
  TGI: > 100 µM
[33]
  TGI: > 100 µM
[34]
  TGI: > 100 µM
[35]
  TGI: > 100 µM
[36]
  TGI: > 100 µM
[37]
  TGI: > 100 µM
[38]
  TGI: > 100 µM
[39]
  TGI: > 100 µM
[40]
  TGI: > 100 µM
[41]
  TGI: > 100 µM
[42]
  TGI: > 100 µM
[43]
  TGI: > 100 µM
[44]
  TGI: > 100 µM

## COCCN1C(=O)C2c3[nH]c4ccccc4c3C3CCC(C(C)(C)C)CC3C2C1=O (configuration not stated)
[1]
  TGI: 31.5 µM
[2]
  TGI: 39.5 µM
[3]
  TGI: > 10 µM
[4]
  TGI: 35.3 µM
[45]
  TGI: 37.6 µM
[5]
  TGI: 87.2 µM
[6]
  TGI: 33.7 µM
[7]
  TGI: 37.1 µM
[8]
  TGI: 38.2 µM
[46]
  TGI: 42.9 µM
[9]
  TGI: 29.9 µM
[10]
  TGI: 36.3 µM
[11]
  TGI: 37.6 µM
[12]
  TGI: 37.4 µM
[47]
  TGI: 38.8 µM
[14]
  TGI: 27 µM
[48]
  TGI: 43.4 µM
[15]
  TGI: > 100 µM
[16]
  TGI: 38.9 µM
[17]
  TGI: 38.1 µM
[19]
  TGI: 43.3 µM
[49]
  TGI: 36.9 µM
[20]
  TGI: 36.9 µM
[21]
  TGI: 30.1 µM
[50]
  TGI: > 10 µM
[22]
  TGI: 39 µM
[23]
  TGI: 57.3 µM
[24]
  TGI: 28 µM
[51]
  TGI: 35.7 µM
[25]
  TGI: 42.6 µM
[26]
  TGI: 33.8 µM
[52]
  TGI: 36.8 µM
[28]
  TGI: 46 µM
[29]
  TGI: 29.1 µM
[30]
  TGI: 39.5 µM
[31]
  TGI: 43.1 µM
[32]
  TGI: 37.6 µM
[33]
  TGI: 34.5 µM
[34]
  TGI: 35.6 µM
[35]
  TGI: 32.3 µM
[53]
  TGI: 30.9 µM
[54]
  TGI: 42.7 µM
[36]
  TGI: 32.9 µM
[37]
  TGI: 44.6 µM
[55]
  TGI: 35.6 µM
[38]
  TGI: 27 µM
[39]
  TGI: 35.5 µM
[40]
  TGI: 38.5 µM
[41]
  TGI: > 10 µM
[42]
  TGI: 28.9 µM
[43]
  TGI: 31.8 µM
[56]
  TGI: > 10 µM
[44]
  TGI: 27.2 µM
